Measured values reported in patent US20040242591A1, “Oxazolidinone derivatives as pontential antimicrobials” (priority 2001, published 2004).

Experiments:
[1] = system: MRSA 15187; assay: MIC by agar incorporation method, MRSA 15187; format: cell-based, Methicillin Resistant Staphylococcus aureus; parameters: unit not given here; conditions: Mueller Hinton agar, 10^4 CFU/spot, 24 hours
Text: 2) MRSA 15187—Methicillin Resistant Staphylococcus aureus

[2] = system: S.aureus ATCC 25923; assay: MIC by agar incorporation method, S.aureus 25923; format: cell-based, Staphylococus aureus; parameters: unit not given here; conditions: Mueller Hinton agar, 10^4 CFU/spot, 18 hours
[3] = system: Ent. faecalis ATCC 29212; assay: MIC by agar incorporation method, E.faecalis 29212; format: cell-based, Enterococcus faecalis; parameters: unit not given here; conditions: Mueller Hinton agar, 10^4 CFU/spot, 18 hours
Text: 3) Ent. faecalis ATCC 29212—Enterococcus faecalis ATCC 29212

[4] = system: MRSA 33; assay: MIC by agar incorporation method, MRSA 33; format: cell-based, Methicillin Resistant Staphylococcus aureus; parameters: unit not given here; conditions: Mueller Hinton agar, 10^4 CFU/spot, 24 hours
[5] = system: MRSA 562; assay: MIC by agar incorporation method, MRSA 562; format: cell-based, Methicillin Resistant Staphylococcus aureus; parameters: unit not given here; conditions: Mueller Hinton agar, 10^4 CFU/spot, 24 hours
[6] = system: Strep. pne. ATCC 6303; assay: MIC by agar incorporation method, S. pneum 6303; format: cell-based, Streptococcus pneumoniae; conditions: Mueller Hinton agar, 10^4 CFU/spot, 18 hours
Text: 5) Strep. pne. ATCC 6303—Streptococcus pneumoniae ATCC 6303

[7] = system: Strep.pyog. ATCC 19615; assay: MIC by agar incorporation method, S.pyogenes 19615; format: cell-based, Streptococcus pyogenes; parameters: unit not given here; conditions: Mueller Hinton agar, 10^4 CFU/spot, 18 hours
Text: 6) Strep.pyog. ATCC 19615—Streptococcus pyogenes

[8] = system: VRE 6A; assay: MIC by agar incorporation method, VRE 6A; format: cell-based, Enterococcus faecium; parameters: unit not given here; conditions: Mueller Hinton agar, 10^4 CFU/spot, 18 hours
Text: 4) Ent. faecium […]—Enterococcus faecium 6A Van®, Cipro®

[9] = system: S. pneum AB 34; assay: MIC by agar incorporation method, S. pneum AB 34; format: cell-based, Streptococcus pneumoniae; parameters: unit not given here; conditions: Mueller Hinton agar, 10^4 CFU/spot, 18 hours

SMILES | In Vitro (MIC) MRSA 15187 [1] | In Vitro (MIC) S.aureus 25923 [2] | In Vitro (MIC) E.faecalis 29212 [3] | In Vitro (MIC) MRSA 33 [4] | In Vitro (MIC) MRSA 562 [5] | In Vitro (MIC) S. pneum 6303 [6] | In Vitro (MIC) S.pyogenes 19615 [7] | In Vitro (MIC) VRE 6A [8] | In Vitro (MIC) S. pneum AB 34 [9]
CC(=O)NC[C@H]1CN(c2ccc(N3CCC(CN(C)Cc4ccc([N+](=O)[O-])o4)CC3)c(F)c2)C(=O)O1 [Compound No. 93] | 1 | 2 | 2 | 1 | 1 | 4 µg/mL | 1 | 4 | 4
CC(=O)NC[C@H]1CN(c2ccc(N3CCC(N(C)C(=O)c4ccc([N+](=O)[O-])s4)C3)c(F)c2)C(=O)O1 (stereo partly drawn) [Compound No. 91] | <0.25 | <0.25 | 0.5 | <0.25 | <0.25 | 1 µg/mL | <0.25 | 1 | 1
O=C(NC[C@H]1CN(c2ccc(N3CCN(Cc4ccc([N+](=O)[O-])o4)CC3)c(F)c2)C(=O)O1)C(F)F [Compound No. 45, (S)-N-[[3-[3-Fluoro-4-[N-1-[4-{2-furyl(5-nitro)methyl}]piperazinyl]phenyl]-2-oxo-5-oxazolidinyl]methyl]-difluoroacetamide] | 1 | 2 | 2 | 2 | 2 | 0.5 µg/mL | 0.5 | 2 | 2
CC(=O)NC[C@H]1CN(c2ccc(N3CCN(C(=O)Cc4cccs4)C(C)C3)c(F)c2)C(=O)O1 (stereo partly drawn) [Compound No. 68, (S)-N-[[3-[3-Fluoro-4-[N-1-[3-methyl-4-{2-thienylacetyl-}]-piperazinyl]phenyl]-2-oxo-5-oxazolidinyl]methyl]acetamide] | 4 | 4 | 4 | 4 | 4 | 4 µg/mL | 2 | 4 | 4
CC(=O)NC[C@H]1CN(c2ccc(N3CCN(C(=O)c4ccc(N)s4)CC3)c(F)c2)C(=O)O1 [Compound No. 34, (S)-N-[[3-[3-Fluoro-4-[N-1-[4-{2-thiophenoyl-(5-amino)}]piperazinyl]phenyl]-2-oxo-5-oxazolidinyl]methyl]acetamide] | 8 | 8 | 4 | 8 | 4 | 4 µg/mL | 1 | 4 | 4
CC(=O)NC[C@H]1CN(c2ccc(N3C(C)CN(C(=O)Cc4cccs4)CC3C)c(F)c2)C(=O)O1 (stereo partly drawn) [Compound No. 66, (S)-N-[[3-[3-Fluoro-4-[N-1-[2,6-dimethyl-4-(2-thienylacetyl)]-piperazinyl]phenyl]-2-oxo-5-oxazolidinyl]methyl]acetamide] | 8 | 8 | 8 | 8 | 8 | 16 µg/mL | 16 | 8 | 16
CC(=O)NC[C@H]1CN(c2ccc(N3CCN(CC(=O)c4cccs4)CC3)c(F)c2)C(=O)O1 [Compound No. 2, (S)-N-[[3-[3-Fluoro-4-[N-1-[4-(2-thiophenoyl-methyl}]piperazinyl]phenyl]-2-oxo-5-oxazolidinyl]methyl]acetamide] | 8 | 8 | 8 | 4 | 4 | 2 µg/mL | 2 | 8 | 8
CC(=O)NC[C@H]1CN(c2ccc(N3CCC(N=Cc4ccc([N+](=O)[O-])o4)CC3)c(F)c2)C(=O)O1 [Compound No. 85, (S)-N-[[3-[3-Fluoro-4-[4-{2-furyl-(5-nitro)methylene]-aminopiperidine-1-yl]phenyl]-2-oxo-5-oxazolidinyl]methyl]acetamide] | 4 | 4 | >8 | 4 | 4 | 4 µg/mL | 2 | >8 | 4
